Marks after values point to notes of the source that are not given here.
Tested on: New Zealand White rabbits
Assay: Embryo-fetal developmental toxicity study in New Zealand White rabbits (Example 4);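 also: dams given a detailed clinical exam daily GD 6 to 29, about 4 h after dosing, then laparohysterectomy on GD 29 with external, visceral and skeletal fetal examination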

CC(C)NC(=O)COc1cccc(-c2nc(Nc3ccc4[nH]ncc4c3)c3ccccc3n2)c1 [belumosudil, 2-{3-[4-(1H-indazol-5-ylamino)-2-quinazolinyl]phenoxy}-N-(propan-2-yl) acetamide] was tested, and the “Hair sparse, Forefoot/right, times observed/animals affected” value (125 mg base/kg/day, GD 0-29) was 0/0, the “Hair sparse, Forelimb/left, times observed/animals affected” value (125 mg base/kg/day, GD 0-29) was 4/1 and the “Hair sparse, Hind limb/left, times observed/animals affected” value (125 mg base/kg/day, GD 0-29) was 0/0. For the same compound, the “Hair sparse, Inguinal region/right, times observed/animals affected” value (125 mg base/kg/day, GD 0-29) was 4/1, the “Hair sparse, Shoulder/left, times observed/animals affected” value (125 mg base/kg/day, GD 0-29) was 2/1 and the “Hair sparse, Thoracic region, times observed/animals affected” value (125 mg base/kg/day, GD 0-29) was 2/1. The “Hair sparse, Ventral surface, times observed/animals affected” value (125 mg base/kg/day, GD 0-29) was 19/1, the “Material in pan/bedding, Red, times observed/animals affected” value (125 mg base/kg/day, GD 0-29) was 2/1 and the “Nail missing, Forefoot/left, times observed/animals affected” value (125 mg base/kg/day, GD 0-29) was 0/0. For the same compound, the “Scabbed area, Ear/left, times observed/animals affected” value (125 mg base/kg/day, GD 0-29) was 0/0, the “Scabbed area, Nose/muzzle, times observed/animals affected” value (125 mg base/kg/day, GD 0-29) was 0/0 and the “Skin discolored, Pale, Entire body, times observed/animals affected” value (125 mg base/kg/day, GD 0-29) was 0/0. For the same compound, the “Swelling, Nose/muzzle, times observed/animals affected” value (125 mg base/kg/day, GD 0-29) was 0/0, the “Swelling, Vulva, times observed/animals affected” value (125 mg base/kg/day, GD 0-29) was 0/0 and the “Thin, times observed/animals affected” value (125 mg base/kg/day, GD 0-29) was 0/0. The “Fetal Body Weight Genders Combined, % Difference From Control” value (225 mg base/kg/day) was −5.76%, the “Fetal External Malformation: Short Tail, No. Fetuses (incidence)” value (225 mg base/kg/day) was 5 (3.2) and the “Fetal External Malformation: Short Tail, No. Litters (incidence)” value (225 mg base/kg/day) was 2 (10.5). The “Fetal External Malformations, No. Fetuses (incidence)” value (225 mg base/kg/day) was 5 (3.2), the “Fetal External Malformations, No. Litters (incidence)” value (225 mg base/kg/day) was 2 (10.5) and the “Fetal Skeletal Malformations, No. Fetuses (incidence)” value (225 mg base/kg/day) was 19 (12.2). For the same compound, the “Fetal Skeletal Malformations, No. Litters (incidence)” value (225 mg base/kg/day) was 10 (52.6), the “Fetal Visceral Variations, No. Fetuses (incidence)” value (225 mg base/kg/day) was 12 (7.7) and the “Fetal Visceral Variations, No. Litters (incidence)” value (225 mg base/kg/day) was 8 (42.1). For the same compound, the “Maternal Body Weight Change GD 0-29, % Difference From Control” value (225 mg base/kg/day) was −24.2%, the “Maternal Body Weight GD 10, % Difference From Control” value (225 mg base/kg/day) was −6.3% and the “Maternal Body Weight GD 13, % Difference From Control” value (225 mg base/kg/day) was −8.0%. The “Maternal Body Weight GD 16, % Difference From Control” value (225 mg base/kg/day) was −9.2%, the “Maternal Body Weight GD 19, % Difference From Control” value (225 mg base/kg/day) was −8.4% and the “Maternal Body Weight GD 21, % Difference From Control” value (225 mg base/kg/day) was −6.7%. For the same compound, the “Maternal Food Consumption GD 0-29” value (225 mg base/kg/day) was 119.80, the “Maternal Food Consumption GD 0-29, % Difference From Control” value (225 mg base/kg/day) was −17.8% and the “Maternal Food Consumption GD 6-10” value (225 mg base/kg/day) was 61.2^b. The “Maternal Food Consumption GD 6-19” value (225 mg base/kg/day) was 78.70, the “Maternal Food Consumption GD 6-19, % Difference From Control” value (225 mg base/kg/day) was −49.7% and the “Maternal Food Consumption GD 19-29” value (225 mg base/kg/day) was 155.3^b. For the same compound, the “Mean Fetal Body Weight Females” value (225 mg base/kg/day) was 38.94 g, the “Mean Fetal Body Weight Genders Combined” value (225 mg base/kg/day) was 38.60 g and the “Mean Fetal Body Weight Males” value (225 mg base/kg/day) was 38.92 g. For the same compound, the “Mean Live Litter Size” value (225 mg base/kg/day) was 7.4, the “Mean Number of Early Resorptions” value (225 mg base/kg/day) was 1.4^a and the “Mean Number of Resorptions (Combined)” value (225 mg base/kg/day) was 1.5^a. For the same compound, the “Mean Postimplantation Loss” value (225 mg base/kg/day) was 17.72 %/Litter, the “Number Litters with Viable Fetuses GD29” value (225 mg base/kg/day) was 19 and the “Number with All Resorptions GD29” value (225 mg base/kg/day) was 2. For the same compound, the “cervical vertebra(e) centra, hemicentra, fetal incidence” value (225 mg base/kg/day) was 2.6%, the “cervical vertebra(e) centra, hemicentra, litter incidence” value (225 mg base/kg/day) was 21.1% and the “neural arches (thoracic) fused, fetal incidence” value (225 mg base/kg/day) was 1.9%. The “neural arches (thoracic) fused, litter incidence” value (225 mg base/kg/day) was 10.5%, the “neural arches (thoracic) misaligned, fetal incidence” value (225 mg base/kg/day) was 1.3% and the “neural arches (thoracic) misaligned, litter incidence” value (225 mg base/kg/day) was 10.5%. For the same compound, the “neural arches (thoracic) misshapen, fetal incidence” value (225 mg base/kg/day) was 2.6%, the “neural arches (thoracic) misshapen, litter incidence” value (225 mg base/kg/day) was 21.1% and the “rib(s) branched, fetal incidence” value (225 mg base/kg/day) was 2.6%. The “rib(s) branched, litter incidence” value (225 mg base/kg/day) was 21.2%, the “rib(s) fused, fetal incidence” value (225 mg base/kg/day) was 2.6% and the “rib(s) fused, litter incidence” value (225 mg base/kg/day) was 15.8%. For the same compound, the “rib(s) misshapen, fetal incidence” value (225 mg base/kg/day) was 1.9%, the “rib(s) misshapen, litter incidence” value (225 mg base/kg/day) was 15.8% and the “short tail (entire), fetal incidence” value (225 mg base/kg/day) was 3.2%. For the same compound, the “short tail (entire), litter incidence” value (225 mg base/kg/day) was 10.5%, the “sternebra(e) extra, fetal incidence” value (225 mg base/kg/day) was 4.5% and the “sternebra(e) extra, litter incidence” value (225 mg base/kg/day) was 21.1%. For the same compound, the “sternebra(e) fused, fetal incidence” value (225 mg base/kg/day) was 4.5%, the “sternebra(e) fused, litter incidence” value (225 mg base/kg/day) was 31.6% and the “tail bent (entire), fetal incidence” value (225 mg base/kg/day) was 1.3%. For the same compound, the “tail bent (entire), litter incidence” value (225 mg base/kg/day) was 5.3%, the “ureter malpositioned, litter incidence” value (225 mg base/kg/day) was 26.3% and the “Number Aborted” value (225 mg base/kg/day, 23 females) was 1. The “Number Died” value (225 mg base/kg/day, 23 females) was 1, the “Number Litters with Viable Fetuses GD29” value (225 mg base/kg/day, 23 females) was 19 and the “Number Not Pregnant” value (225 mg base/kg/day, 23 females) was 0. For the same compound, the “Number with All Resorptions GD29” value (225 mg base/kg/day, 23 females) was 2, the “Activity decreased, times observed/animals affected” value (225 mg base/kg/day, GD 0-29) was 4/1 and the “Feces few/absent, times observed/animals affected” value (225 mg base/kg/day, GD 0-29) was 0/0. The “Hair discolored, Brown, Anogenital region, times observed/animals affected” value (225 mg base/kg/day, GD 0-29) was 0/0, the “Hair discolored, Brown, Ear/left, times observed/animals affected” value (225 mg base/kg/day, GD 0-29) was 0/0 and the “Hair discolored, Brown, Ear/right, times observed/animals affected” value (225 mg base/kg/day, GD 0-29) was 0/0. The “Hair discolored, Brown, Face, times observed/animals affected” value (225 mg base/kg/day, GD 0-29) was 12/2, the “Hair discolored, Brown, Hind limb/left, times observed/animals affected” value (225 mg base/kg/day, GD 0-29) was 1/1 and the “Hair discolored, Red, Anogenital region, times observed/animals affected” value (225 mg base/kg/day, GD 0-29) was 0/0. The “Hair discolored, Red, Face, times observed/animals affected” value (225 mg base/kg/day, GD 0-29) was 0/0, the “Hair discolored, Red, Forelimb/left, times observed/animals affected” value (225 mg base/kg/day, GD 0-29) was 0/0 and the “Hair discolored, Red, Thoracic region, times observed/animals affected” value (225 mg base/kg/day, GD 0-29) was 0/0. For the same compound, the “Hair discolored, Yellow, Ear/right, times observed/animals affected” value (225 mg base/kg/day, GD 0-29) was 0/0, the “Hair discolored, Yellow, Face, times observed/animals affected” value (225 mg base/kg/day, GD 0-29) was 14/2 and the “Hair sparse, Anogenital region, times observed/animals affected” value (225 mg base/kg/day, GD 0-29) was 0/0. The “Hair sparse, Axillary region/left, times observed/animals affected” value (225 mg base/kg/day, GD 0-29) was 3/1, the “Hair sparse, Axillary region/right, times observed/animals affected” value (225 mg base/kg/day, GD 0-29) was 2/1 and the “Hair sparse, Cervical region, times observed/animals affected” value (225 mg base/kg/day, GD 0-29) was 0/0. For the same compound, the “Hair sparse, Ear/left, times observed/animals affected” value (225 mg base/kg/day, GD 0-29) was 0/0, the “Hair sparse, Ear/right, times observed/animals affected” value (225 mg base/kg/day, GD 0-29) was 0/0 and the “Hair sparse, Forefoot/left, times observed/animals affected” value (225 mg base/kg/day, GD 0-29) was 3/1. The “Hair sparse, Forefoot/right, times observed/animals affected” value (225 mg base/kg/day, GD 0-29) was 5/2, the “Hair sparse, Forelimb/left, times observed/animals affected” value (225 mg base/kg/day, GD 0-29) was 0/0 and the “Hair sparse, Hind limb/left, times observed/animals affected” value (225 mg base/kg/day, GD 0-29) was 8/1. For the same compound, the “Hair sparse, Inguinal region/right, times observed/animals affected” value (225 mg base/kg/day, GD 0-29) was 0/0, the “Hair sparse, Shoulder/left, times observed/animals affected” value (225 mg base/kg/day, GD 0-29) was 0/0 and the “Hair sparse, Thoracic region, times observed/animals affected” value (225 mg base/kg/day, GD 0-29) was 1/1. For the same compound, the “Hair sparse, Ventral surface, times observed/animals affected” value (225 mg base/kg/day, GD 0-29) was 0/0, the “Material in pan/bedding, Red, times observed/animals affected” value (225 mg base/kg/day, GD 0-29) was 2/2 and the “Nail missing, Forefoot/left, times observed/animals affected” value (225 mg base/kg/day, GD 0-29) was 0/0. For the same compound, the “Scabbed area, Ear/left, times observed/animals affected” value (225 mg base/kg/day, GD 0-29) was 0/0, the “Scabbed area, Nose/muzzle, times observed/animals affected” value (225 mg base/kg/day, GD 0-29) was 0/0 and the “Skin discolored, Pale, Entire body, times observed/animals affected” value (225 mg base/kg/day, GD 0-29) was 11/1. For the same compound, the “Swelling, Nose/muzzle, times observed/animals affected” value (225 mg base/kg/day, GD 0-29) was 0/0, the “Swelling, Vulva, times observed/animals affected” value (225 mg base/kg/day, GD 0-29) was 2/1 and the “Thin, times observed/animals affected” value (225 mg base/kg/day, GD 0-29) was 38/5. The “NOAEL for maternal and developmental toxicity” value (pregnant rabbits) was 50 mg base/kg/day, the “doses at which embryo-fetal effects were observed (abortion, post-implantation loss, malformations, decreased fetal body weight)” value (pregnant rabbits, oral) was ≥ 50 mg/kg/day and the “doses at which maternal toxicity (body weight loss and mortality) was observed” value (pregnant rabbits, oral, organogenesis) was ≥ 125 mg/kg/day.

From patent US20240277713A1 (Kadmon Corporation, LLC, priority 2022, published 2024)
